This note sets out measurements from publication PMC5772648, “Targeted NUDT5 inhibitors block hormone signaling in breast cancer cells” (Nature Communications, 2018).

Where two headings read alike, the source gives them in different places. Where only a bound is given, the exact number is not on record here.

The term IC50 denotes the midpoint of a concentration-inhibition curve. By Tm is commonly meant the temperature at which the thermal transition is half complete.

One series deals with T1, human NUDT5 (Homo sapiens, UniProt Q9UKK9).
T1 construct: His-tag (N); made in house; host or cells: E. coli BL21 (DE3) R3 pRARE2
The series is described as follows: enzyme-coupled malachite green assay (MG assay), ADPR hydrolysis. The series is classed as biochemical. The conditions noted are these: for IC50: NUDT5, ADPR substrate. The source says: We next sought to develop small molecule NUDT5 inhibitors to further probe the role of NUDT5 in ADPR metabolism. A high-throughput, screening-compatible NUDT5 inhibition assay was established using slight modifications to the aforementioned MG procedure (Fig. 2a)[15],[27]. Briefly, ADPR, NUDT5 and calf intestinal alkaline phosphatase (CIP) were combined in a coupled enzymatic assay, as described in the online methods. In turn, ADPR was hydrolyzed to AMP and R5P by NUDT5, and the released R5P was further degraded to ribose and inorganic phosphate (Pi) by CIP. Free Pi was subsequently detected using the malachite green reagent. The screen was conducted using a combination of the Chemical Biology Consortium of Sweden (CBCS) primary screening set and several commercial libraries from Enamine, TimTec, Maybridge and ChemDiv. In total, ~72 000 distinct chemical entities were screened for their potential inhibition of NUDT5 at a concentration of 10 µM (Supplementary Table 1, Supplementary Fig. 2a, b). Execution of this screening campaign was split between two different occasions. The screening performance in the two screening campaigns was excellent (average z´ factors of 0.87 and 0.85, Supplementary Fig. 2c), resulting in a hit limit as defined by the average and three standard deviations of the library compound responses of 10.1 and 18.4% inhibition, respectively (Supplementary Table 1, Supplementary Fig. 2a, b). This translated to 53 and 475 hits (0.3 and 0.8% hit rate, respectively), yielding 528 total hits from the 2 separate screening occasions.
Activity of NUDT5 and MTH1 with a panel of potential substrates [2-OH-ATP, 2-OH-dATP, 8-oxo-dGDP, GDP and 8-oxo-GTP (Jena Biosciences), 8-oxo-dGTP (TriLink Biotechnologies), dATP (ThermoFisher Scientific), dGTP, GTP and ADPR (Sigma-Aldrich)] was assessed in reaction buffer (100 mM Tris Acetate pH 7.5, 40 mM NaCl, 10 mM Mg Acetate) at 22 °C. For ADPR, alkaline phosphatase from bovine intestinal mucosa (10 U/ml; Sigma-Aldrich) was added as coupled enzyme, while other substrates were coupled to E. coli pyrophosphatase (0.2 U/mL, Sigma-Aldrich). After 30 min incubation with shaking, formed inorganic phosphate was detected by addition of malachite green reagent. Absorbance at 630 nm was read after 15 min incubation with shaking using a Hidex Sense plate reader. The potency of NUDT5 inhibitors was assessed similarly as above (and in the screening campaign) by monitoring ADPR hydrolysis; details are in the Supplementary Information.
Small molecule library composition
The screen for NUDT5 inhibitors was conducted at Chemical Biology Consortium Sweden (www.cbcs.se). Two screening campaigns completed in August 2012 and in March 2013 respectively comprised a combination of in-house and commercially available libraries, amounting to a total of 75679 compounds. The commercial compounds originate from Enamine, TimTec, MayBridge and ChemDiv. The in-house libraries were donated by Biovitrum AB, Sweden (the origin and composition is described previously)2. For long-term storage, the compounds are kept frozen at - 20°C as 10 mM solutions in dimethyl sulfoxide (DMSO) under low humidity conditions in REMP 96 Storage Tube Racks in a REMP Small-Size Store™. To facilitate screening an aliquot of the stock solutions have been transferred to Labcyte 384 LDV plates (LP-0200) to enable dispensing using an Echo 550™ acoustic liquid handler (LabCyte). For both screening campaigns 40 nl of the compound solutions were dispensed directly into columns 1-22 of the 384-well assay plates (Nunc 242757), while columns 23 and 24 were reserved for controls as outlined below. The plates were sealed with a Peelable Aluminium seal (Agilent 24210-001) using a PlateLoc thermal microplate sealer (Agilent) and kept at room temperature until used. The final compound concentration in the screen was 10 µM with a final DMSO concentration of […]
Enzymatic assay applied for screening and hit confirmation […]

The target in the next series is T2, purified NUDT5 (Homo sapiens, UniProt Q9UKK9).
T2 construct: His-tag (N); made in house; host or cells: E. coli BL21 (DE3) R3 pRARE2
Description: differential scanning fluorimetry (DSF). The conditions noted are these: 20 µM compound; for Tm: DMSO 74; for ΔTm at 20 µM: read-out: shift in melting temperature (Tm). It counts as binding. The procedure:
Differential scanning fluorimetry (DSF)[5],[47] was performed with 5 µM purified NUDT5, 20 µM NUDT5 inhibitor and 5x Sypro Orange added per well added to a 96-well PCR plate. Each experiment was performed in duplicate. Temperature gradients from 25 to 95 °C (increasing at a rate of 1 °C per minute) were completed with readings every minute on a CFX96 Real-Time PCR machine (Bio-Rad). Melting temperatures were determined as the minimum of the negative first derivative plots with CFX Maestro software (Bio-Rad).
A general note: DSF heats the sample and reads unfolding from a dye or from intrinsic fluorescence.

For series [1], the target named is T3, NUDT5 in intact HL-60 cells (Homo sapiens, UniProt Q9UKK9).
T3 construct: endogenous in cells; host or cells: HL-60
Description: intact cell CETSA. The series is classed as cell-based. To be noted: 20 µM, 83 °C. Here is the method:
For CETSA experiments with cells treated in culture, 1 × 10^6 HL-60 were treated with DMSO (0.1 % v/v final) or 20 µM compound for 3 h at 37 °C and 5% CO2 in a humidified incubator. T47D^WT cells were treated instead with 80 µM TH1659, 15 µM TH5423/5424 and 1.5 µM TH5427. The cells were harvested, washed twice with PBS and resuspended in TBS with protease inhibitors, as above. Heating was identical as before, except that immediately following heating, the cell suspensions were snap frozen in a dry ice/ethanol bath and freeze-thawed, as previously, to lyse cells. Centrifugation at 20 000 × g for 20 min at 4 °C removed cellular debris and protein aggregates, and lysates were prepared for western blotting.

A further series is described as follows: solubility. It counts as physicochemical.
Series [2] has as its target T4, NUDT5 in HL-60 cell lysates (Homo sapiens, UniProt Q9UKK9).
T4 construct: endogenous in cells; host or cells: HL-60
The series is described as follows: cell lysate CETSA (HT-CETSA). It counts as binding. To be noted: 20 µM, 83 °C. Here is the method:
Target engagement in cells was determined by the cellular thermal shift assay (CETSA)[29]. Briefly, cell lysate thermal shift assays were performed with 1 × 10^6 HL-60 cells per temperature/condition. Cells were collected and washed once with PBS and resuspended in TBS with protease inhibitor cocktail (Mini cOmplete, EDTA-free, Roche) at 60 µL/1 × 10^6 cells. The cells were then aliquoted and lysed by freeze-thawing three times with 3-min incubations (3x, 3 min.+3 min.) using an ethanol/dry ice bath and water bath at 37 °C. The lysates were then centrifuged at 20,000×g for 20 min at 4 °C to remove cellular debris. Supernatants were then transferred to PCR strip tubes and treated with 0.5 µL DMSO (0.8% v/v final) or 20 µM inhibitor for 20 min at room temperature. Lysates with compounds were heated at the indicated temperature in a Veriti Thermal Cycler (Applied Biosystems) for 3 min, then cooled for another 3 min at room temperature. They were then centrifuged at 20 000 × g for 20 min at 4 °C to pellet protein aggregates and 45 µL was removed and prepared for western blotting analysis.

The mark [3] stands for this setting: read-out: MG assay IC50 (Biochemical IC50).

In the case of `O=c1cc(-c2ccccc2)oc2ccccc12` [flavone, reference compound], at human NUDT5 (read-out: MG assay IC50), the half-inhibitory concentration (IC50) was > 100000 nM.

Regarding `O=c1cc(N2CCOCC2)oc2c(-c3ccccc3)cccc12` [LY294002, reference compound], the IC50 on human NUDT5 (read-out: MG assay IC50) was > 100000 nM.

Consider `O=C(O)/C=C/c1ccc(O)cc1` [p-coumaric acid, reference compound], for which the IC50 on human NUDT5 (read-out: MG assay IC50) was > 100000 nM.

Take `Cc1cccc(-c2nnc(Cn3c(N(C)C)nc4c3c(=O)n(C)c(=O)n4C)o2)c1` [TH1713]: at purified NUDT5, the Tm was found to be 79 °C and the ΔTm at 20 µM was 5 °C. Moreover, at human NUDT5 (MG assay), the “fold greater potency over TH1167” value is “more than 8 fold”. Moreover, the IC50 at human NUDT5 (setting [3]) was 70 nM. In addition, the “NUDT5 stabilization in intact cells” value in series [1] was “only TH1533 showed activity by CETSA in intact cells”. For the same compound, the “solubility” value in “solubility” was “very poor solubility”.

In the case of `COc1ccc2c(c[n+](C)c3c4cc5c(cc4ccc23)OCO5)c1OC` [chelerythrine, reference compound], the IC50 on human NUDT5 (read-out: MG assay IC50) was > 100000 nM.

With `Cc1cccc(-c2nnc(Cn3cnc4c3c(=O)n(C)c(=O)n4C)o2)c1` [TH1167], the IC50 on human NUDT5 (read-out: MG assay IC50) was determined as 580 nM. In series [1], the “NUDT5 stabilization in intact cells” value is recorded as “did not show sufficient target engagement”. Besides, in series [2], the “NUDT5 stabilization in cell lysates” value is on record as “did not show sufficient target engagement”.

Consider `Cn1c(=O)c2c(ncn2Cc2nnc(-c3ccc(Cl)c(Cl)c3)o2)n(C)c1=O` [TH1533], for which, at purified NUDT5, the Tm is 79 °C and the ΔTm at 20 µM is 5 °C. The “MG assay potency compared with TH1713” value at human NUDT5 is listed as “equipotent with TH1713”. In addition, the IC50 at human NUDT5 (setting [3]) amounted to 70 nM. Moreover, the “NUDT5 stabilization in intact cells” value in series [1] is “showed activity by CETSA in intact cells”. In the series “solubility”, the “solubility” value is on record as “very poor solubility”.
